From patent publication US11891386B2, “Indole compounds and their use” (ARIAGEN, INC., priority 2017, dated 2024)

What was measured:
[1] = test system: IL-21 secretion from human CD4+ T cells; experiment: Suppression of IL-21 secretion by activated Th17 cells (ALPHALISA); assay type: cell-based; details: for IC50: 120 h, human CD4+ T cells under Th17 stimulation, 5 days; for potency in suppressing IL-21 secretion, in words: human CD4+ T cells
From the text: IL-21 is a pro-inflammatory cytokine secreted by CD4^+ Th17 cells and is thought to serve as a T-cell growth factor playing overlapping roles with IL-2. This Example describes a study that measured the IC50 values of the indole compounds disclosed herein for suppressing IL-21 secretion from human CD4^+ T cells that had been treated with stimulatory conditions that gave rise to TH17 cells (see, e.g., Dobritsa et al., J Biomol Screen. 18(1):75-84 (2013)).
Human CD4^+ T cells were purchased from Lonza Walkersville Inc. (Walkersville, MD). DMSO was obtained from Sigma (St. Louis, MO). Greiner cell culture plates, Gibco DMEM cell culture medium, media supplements, and antibiotics, as well as DYNABEADS Human T-Activator CD3/CD28 and R&D Systems TGF-β, IL-1β and IL-23 and Invitrogen IL-6 cytokines, were purchased through Fisher Scientific (Pittsburgh, PA). ALPHALISA assay plates and the Human Interleukin-21 ALPHALISA kit was obtained from Perkin Elmer (Boston, MA).
Cell culture plates were pre-coated with test compounds in serial dilutions for generating a 10-point, 3-fold dose response curve with a top concentration of 1 μM or 100 nM. To do this, compounds were dissolved in DMSO and added to an ECHO qualified plate for transfer to the cell culture plate with the ECHO555. The indole compounds to be tested were dissolved in […] and wells were backfilled with DMSO so that all treatments received 0.1% DMSO final volume. Positive control (0% inhibition) wells, in which compounds were replaced with […], were included on each plate. At least 15×10^6 frozen CD4^+ T cells per plate of compounds were thawed in a 37° C. water bath, and the cells were washed twice with 10 mL of the complete medium (DMEM supplemented with 10% fetal bovine serum (FBS), 100 U/mL penicillin, and 100 μg/mL streptomycin), followed by centrifugation (250×g, 10 min). Cells were re-suspended to the desired density, and cultured in 384-well treated sterile cell culture plates in a total volume of 50 μL per well. Each plate included wells with induced and un-induced cells.
Induced cells were activated in the complete medium with DYNABEADS Human T-Activator CD3/CD28 at a bead-to-cell ratio of 1:2.5 and stimulated with the following cytokines: transforming growth factor-β (TGF-β, 5 ng/mL), IL-6 (20 ng/mL), IL-23 (20 ng/mL), and IL-1β (10 ng/mL).
Un-induced cells were left in complete medium with no additional supplements. Plates were incubated at 37° C., 5% CO2 for a total of 5 days. Upon completion of the 5 day incubation period, cells were spun down (1,000×g, 1 min) and supernatant was transferred to the ALPHALISA assay plate using the Mosquito HTS liquid handler (TTP Labtech Inc., Cambridge, MA).
IL-21 levels in cell supernatants and cell-free control samples were measured using the ALPHALISA assay kit from Perkin Elmer, following the manufacturer's instructions. The assay was run at room temperature in 384-well ALPHAPLATES (cat. 6005350; Boston, MA). Briefly, immediately after transferring the cell supernatant to the assay plate, anti-IL-21 acceptor beads were added with the CERTUS FLEX liquid handler (LEAP Technologies, Morrisville, NC). The plate was sealed, spun down and incubated for 30 minutes. After incubation, the seal was removed, anti-IL-21 biotinylated antibody was added with the CERTUS FLEX, and the plate was sealed again, spun down and incubated for 60 minutes. Next, the seal was removed, streptavidin-coated donor beads were added with the CERTUS FLEX, and the plate was sealed, spun down and incubated for another 60 minutes. Finally, the seal was removed and the plate was read using the ENVISION reader (Perkin Elmer, Boston, MA) set with an excitation filter of 680 nm and an emission filter of 615 nm. Two independent IL-21 standard dilution curves were run per plate with analyte provided in the ALPHALISA kit.
For estimation of the assay performance, Z′ values were calculated for each plate, comparing positive and negative controls. […]

[2] = test system: human hepatocytes; experiment: Hepatocyte intrinsic clearance assay, human hepatocytes; assay type: in vitro ADME; details: for CLint (μL/min/10^6 ells) / EH (%) hepatic extraction ratio: Human Hepatocytes; for CLint (μL/min/10^6 ells): 1 μM test compound; for EH (%) hepatic extraction ratio: well stirred liver model, fu=1
From the text: The liver is an important organ in the body for drug metabolism. This Example describes hepatocyte intrinsic clearance assays using both human and mouse hepatocytes to evaluate the metabolic stability of the indole compounds disclosed herein. The parameters measured include t1/2 (half-life), CLint (intrinsic clearance), and EH (hepatic extraction ratio).
Testosterone (Lot FE111011-01) was obtained from Cerilliant (Round Rock, TX). 7-hydroxycoumarin (Lot 11631ED) was obtained from Sigma Aldrich (St. Louis, MO). Cryopreserved human hepatocytes pooled from ten donor males (X008001), cryopreserved male IRC/CD-1 mouse hepatocytes (M005052), INVITROGRO HI Medium (incubation), and INVITROGRO HT Medium (thawing) were obtained from Bioreclamation IVT (Baltimore, MD). All solvents were obtained from commercial sources and used without further purification.
Each test compound was prepared as a 1 mM stock solution in DMSO. A 2 μM solution of test compound and positive controls were prepared in INVITROGRO HI Medium (incubation). These solutions were pre-warmed in a sterile incubator set to maintain 37° C., 5% CO2, and 98% humidity. Cryopreserved hepatocytes were prepared at a concentration of 2×10^6 living cells/mL in incubation media and pre-warmed in the incubator. The compound solutions and hepatocyte mixtures were then combined at a ratio of 1:1 (v:v). The final volume of the reaction mixture was 750 μL, containing 1 μM test compound (10 μM for 7-hydroxycoumarin) and […]. The reaction mixture was placed in the incubator on a plate shaker. After 0, 15, 30, 60, 90, and 120 minutes of incubation, 100 μL of reaction mixtures were removed from the incubation plate and mixed with 150 μL of ice-cold acetonitrile in a designated well of a 96-well crash plate. The 96-well crash plate was placed on ice for 15 min, and samples were centrifuged (3,600 RPM, 10 min, 4° C.) to precipitate protein. The supernatants were diluted 1:1 (v:v) with water containing 0.15 μM verapamil and/or 1 μM tolbutamide (internal standards for positive and negative modes, respectively) in a 96-well shallow injection plate. This plate was sealed for LC-MS analysis. All measurements were done in duplicate.
The residual compound remaining (% R) was determined from LC-MS peak areas by comparison to the zero time point. Metabolic half-life (t1/2) and intrinsic clearance (CLint) values were calculated from the slope of the plot of ln (% R) vs. time and the concentration of hepatocytes present in the incubation. Percent remaining at 60 minutes was calculated by plugging in the 60 minute value into the slope equation generated by the percent remaining time points.
In vivo hepatic clearance CLH was calculated using the well stirred liver model according to the following equation:
[formula] where QH is the total liver blood flow, fu is unbound fraction of the drug, and CL′int is defined as follows: CL′int=CLint×(10^6 cells/g of liver weight)×(g liver weight/kg of body weight). In the first approximation, used in this study, fu=1.
Hepatic extraction ratio EH was calculated using the following equation:
[formula] Corresponding physiological parameters used in calculations for all species are shown below in Table 5.

COC(=O)c1csc(C(=O)c2c[nH]c3ccccc23)n1 [ARI-001, ITE]
IC50 [1]: 38.2 nM | CLint (μL/min/10^6 ells) [2]: 220.4 μL/min/10^6 ells | EH (%) hepatic extraction ratio [2]: 91%

CNC(=O)c1csc(C(=O)c2c[nH]c3ccccc23)n1 [ARI-004]
IC50 [1]: 231 nM | potency in suppressing IL-21 secretion, in words [1]: weak activity | CLint (μL/min/10^6 ells) [2]: 40.2 μL/min/10^6 ells | EH (%) hepatic extraction ratio [2]: 65%

Cc1nc(-c2csc(C(=O)c3c[nH]c4ccccc34)n2)no1 [ARI-030, (1H-indol-3-yl)(4-(5-methyl-1,2,4-oxadiazol-3-yl)thiazol-2-yl)methanone]
IC50 [1]: 40 nM | potency in suppressing IL-21 secretion, in words [1]: among the least potent | CLint (μL/min/10^6 ells) [2]: 1.8 μL/min/10^6 ells | EH (%) hepatic extraction ratio [2]: 18%

Cc1noc(-c2csc(C(=O)c3c[nH]c4ccccc34)n2)n1 [ARI-031, (1H-indol-3-yl)(4-(3-methyl-1,2,4-oxadiazol-5-yl)thiazol-2-yl)methanone]
IC50 [1]: 42.6 nM | potency in suppressing IL-21 secretion, in words [1]: among the least potent | CLint (μL/min/10^6 ells) [2]: 0.7 μL/min/10^6 ells | EH (%) hepatic extraction ratio [2]: 8% | clearance / metabolic profile, in words ([2]; human hepatocytes): low clearance

CNC(=O)c1csc(C(=O)c2c[nH]c3ccc(Cl)cc23)n1 [ARI-049, 2-(5-chloro-1H-indole-3-carbonyl)-N-methylthiazole-4-carboxamide]
IC50 [1]: 10.1 nM | CLint (μL/min/10^6 ells) [2]: 3.0 μL/min/10^6 ells | EH (%) hepatic extraction ratio [2]: 27% | clearance / metabolic profile, in words ([2]; human hepatocytes): lower clearance and EH value

COC(=O)c1csc(C(=O)c2c[nH]c3ccc(Cl)cc23)n1 [ARI-055, methyl 2-(5-chloro-1H-indole-3-carbonyl)thiazole-4-carboxylate]
IC50 [1]: 73.6 nM | CLint (μL/min/10^6 ells) [2]: 10.3 μL/min/10^6 ells | EH (%) hepatic extraction ratio [2]: 56%

O=C(c1nc(-c2nnco2)cs1)c1c[nH]c2ccccc12 [ARI-056, (4-(1,3,4-oxadiazol-2-yl)thiazol-2-yl)(1H-indol-3-yl)methanone]
IC50 [1]: 4.9 nM | CLint (μL/min/10^6 ells) [2]: 17.7 μL/min/10^6 ells | EH (%) hepatic extraction ratio [2]: 68%

Cc1nnc(-c2csc(C(=O)c3c[nH]c4ccccc34)n2)o1 [ARI-060, (1H-indol-3-yl)(4-(5-methyl-1,3,4-oxadiazol-2-yl)thiazol-2-yl)methanone]
IC50 [1]: 110 nM | potency in suppressing IL-21 secretion, in words [1]: among the least potent | CLint (μL/min/10^6 ells) [2]: 2.5 μL/min/10^6 ells | EH (%) hepatic extraction ratio [2]: 24%

CNC(=O)c1csc(C(=O)c2c[nH]c3ccc(F)cc23)n1 [ARI-065, 2-(5-fluoro-1H-indole-3-carbonyl)-N-methylthiazole-4-carboxamide]
IC50 [1]: 14 nM | CLint (μL/min/10^6 ells) [2]: 7.6 μL/min/10^6 ells | EH (%) hepatic extraction ratio [2]: 48% | clearance / metabolic profile, in words ([2]; human hepatocytes): lower clearance and EH value

COC(=O)c1csc(C(=O)c2c[nH]c3ccc(F)cc23)n1 [ARI-066, methyl 2-(5-fluoro-1H-indole-3-carbonyl)thiazole-4-carboxylate]
IC50 [1]: 48.6 nM | CLint (μL/min/10^6 ells) [2]: 98.7 μL/min/10^6 ells | EH (%) hepatic extraction ratio [2]: 92%

CCC(=O)c1csc(C(=O)c2c[nH]c3ccc(Cl)cc23)n1 [ARI-067, 1-(2-(5-chloro-1H-indole-3-carbonyl)thiazol-4-yl)propan-1-one]
IC50 [1]: 6.3 nM | CLint (μL/min/10^6 ells) [2]: 2.3 μL/min/10^6 ells | EH (%) hepatic extraction ratio [2]: 22%

Nc1nnc(-c2csc(C(=O)c3c[nH]c4ccccc34)n2)o1 [ARI-083, (4-(5-amino-1,3,4-oxadiazol-2-yl)thiazol-2-yl)(1H-indol-3-yl)methanone]
IC50 [1]: 0.3 nM | potency in suppressing IL-21 secretion, in words [1]: most potent | CLint (μL/min/10^6 ells) [2]: 1.1 μL/min/10^6 ells | EH (%) hepatic extraction ratio [2]: 12% | clearance / metabolic profile, in words ([2]; human hepatocytes): lower clearance and hepatic extraction parameters than ARI-060

CCC(=O)c1csc(C(=O)c2c[nH]c3ccc(F)cc23)n1 [ARI-087, 1-(2-(5-fluoro-1H-indole-3-carbonyl)thiazol-4-yl)propan-1-one]
IC50 [1]: 25.4 nM | CLint (μL/min/10^6 ells) [2]: 6.0 μL/min/10^6 ells | EH (%) hepatic extraction ratio [2]: 43% | EH lower as compared to ARI-002, in words ([2]; human hepatocytes): two times lower | times lower clearance as compared to ARI-002 ([2]; human hepatocytes): 23 times

Nc1nnc(-c2csc(C(=O)c3c[nH]c4ccccc34)n2)s1 [ARI-090, (4-(5-amino-1,3,4-thiadiazol-2-yl)thiazol-2-yl)(1H-indol-3-yl)methanone]
IC50 [1]: 8.4 nM | CLint (μL/min/10^6 ells) [2]: 5.3 μL/min/10^6 ells | EH (%) hepatic extraction ratio [2]: 39%

Nc1nnc(-c2csc(C(=O)c3c[nH]c4c(F)cccc34)n2)o1 [ARI-118, (4-(5-amino-1,3,4-oxadiazol-2-yl)thiazol-2-yl)(7-fluoro-1H-indol-3-yl)methanone]
IC50 [1]: 0.8 nM | times more potent than ARI-087 ([1]; IL-21 secretion assay): about 32 times | potency in suppressing IL-21 secretion, in words [1]: most potent | CLint (μL/min/10^6 ells) [2]: 0.7 μL/min/10^6 ells | EH (%) hepatic extraction ratio [2]: 8.4% | clearance / metabolic profile, in words ([2]; human hepatocytes): low clearance

Nc1nnc(-c2csc(C(=O)c3c[nH]c4cc(Cl)c(Cl)cc34)n2)o1 [ARI-120, (4-(5-amino-1,3,4-oxadiazol-2-yl)thiazol-2-yl)(5,6-dichloro-1H-indol-3-yl)methanone]
IC50 [1]: 0.3 nM | potency in suppressing IL-21 secretion, in words [1]: most potent | CLint (μL/min/10^6 ells) [2]: 0.8 μL/min/10^6 ells | EH (%) hepatic extraction ratio [2]: 8.5% | clearance / metabolic profile, in words ([2]; human hepatocytes): low clearance
